The test system of this experiment is Plasmodium falciparum. The experiment can be described thus: GSK_TCMDC: Inhibition of Plasmodium falciparum 3D7 in whole erythrocytes, using parasite LDH activity as an index of growth. The settings on record: Plasmodium falciparum, 3D7. Type of experiment: functional, organism-based.
Regarding `O=C(Cn1c(CCc2cccc(F)c2F)nc(=O)c2ccccc21)N(CCCN1CCCCC1)Cc1ccc(-c2ccc(C(F)(F)F)cc2)cc1`, the XC50 was 762 nM. Then `C=CCc1cc(Cc2cnc(N)nc2N)cc(CCC)c1O`, with 986 nM; and `COc1cc([N+](=O)[O-])ccc1NC(=O)c1cc(Cl)ccc1O`, with 1140 nM. Take `O=C(Nc1ccc(CN2CCN(S(=O)(=O)c3ccc(Cl)s3)CC2)cc1)c1cccs1`: the XC50 worked out at 894 nM. In the case of `COc1ccc(CNC2Cc3ccccc3C2)cc1-c1ccc(S(=O)(=O)NCCN2CCCC2)cc1`, the XC50 worked out at 582 nM. In the case of `COc1ccc2nccc([C@@H](O)CN3CCC(NC(=O)c4ccc(Cl)c(OC)c4)CC3)c2c1` it was 792 nM; in that of `CCc1c(C(=O)NC2CCC(N3CCC(c4ccccc4OC)CC3)CC2)[nH]c2ccc(Br)cc12` (stereo unspecified), 1120 nM; in that of `CC(Cc1ccc(Oc2ccc(Cl)cc2)cc1)NCC(O)c1cccc(Cl)c1` (stereo unspecified), 739 nM. Molecule `CC(C)(C)c1ccc(CN2CCC(CNC(=O)c3cc(-c4cccc(C(F)(F)F)c4)cs3)C2)cc1` (stereo unspecified) yielded an XC50 of 1030 nM. In the case of `CN(C)c1ccc(-c2csc(C(=O)NCC3CCN(CCC(C)(C)C)C3)c2)cc1` (stereo unspecified) it was 1500 nM; in that of `N=C(N)c1cccc(OCCCOc2cccc(NC(=O)Nc3ccc([N+](=O)[O-])cc3)c2)c1`, 862 nM. For the molecule `CN(C)CCn1c(=N)n(CC(O)c2ccc(Cl)c(Cl)c2)c2ccccc21` (stereo unspecified), the XC50 was 798 nM. The molecule `O=C(c1cc(OC(F)(F)F)ccc1O)N1CCN(c2ccccc2)CC1` showed an XC50 of 1050 nM. Then `COc1ccc(CNCc2ccccc2)cc1-c1cccc(S(=O)(=O)NCCN2CCCC2)c1`, with 786 nM; and `N=C(N)NC(=O)Nc1cc(F)c(Cl)c(Cl)c1`, with 505 nM; and `Cc1ccc(C(=O)c2oc3ccc4c(C)cc(=O)oc4c3c2C)cc1`, with 1030 nM. Turning to `O=C(C=Cc1ccc(C(=O)Nc2ccc(C3=NCCN3)cc2)cc1)Nc1ccc(C2=NCCN2)cc1`, the XC50 was determined as 34.7 nM. Then `Oc1ccc2nc(Nc3ccccc3)nc(NCCc3ccccc3)c2c1`, with 152 nM; and `CN1CCN(CCCN(Cc2csc(-c3ccc(CNCc4ccccc4)cc3)n2)C(=O)Nc2cccc(Cl)c2)CC1`, with 789 nM; and `CN1CCCN(Cc2cccc(-c3cccc(NC(=O)c4ccc(C#N)cc4)c3)c2)CC1`, with 1140 nM.

`COc1ccc(-c2csc(N(CCCN(C)C)C(=O)c3cc4c(C)nn(-c5ccccc5)c4s3)n2)cc1`: the XC50 came to 623 nM. Then `CCCc1cc(Cc2cnc(N)nc2N)c2cccnc2c1OC`, with 675 nM. For the molecule `CN(C)CCCNCc1ccc(-c2ccc(CNCCOc3ccccc3)cc2)cc1`, the XC50 is 18.6 nM.

In the case of `CCCCCc1cc(O)c2c(c1)OC(C)(C)c1ccncc1-2`, the XC50 was 763 nM. Then `CC(C)CC(=O)N1CCNC[C@@H]1C(=O)NCCSCc1c(F)cccc1Cl`, with 1200 nM. Then `CC(C)NCc1ccc(-c2cccc(NC(=O)c3cccc(Cl)c3)c2)cc1`, with 728 nM; and `O=C(NC1CCC1)C1CCN(C(c2ccccc2)c2cc(F)cc(F)c2)CC1` (stereo unspecified), with 797 nM; and `O=[N+]([O-])c1cccc(CNC2CCN(Cc3ccc(-c4ccccc4)cc3)CC2)c1`, with 231 nM. In the case of `CCOC(=O)c1cc(C(=O)NCCCCN2CCC(c3cn(C)c4ccccc34)CC2)ccc1-c1ccc(C(F)(F)F)cc1` it was 1200 nM. The molecule `CC(C)C(=O)NC(Nc1ccc([N+](=O)[O-])cc1)C(Cl)(Cl)Cl` (stereo unspecified) gave an XC50 of 835 nM.

As to `O=C(CSc1nccn1C1CCCC1)Nc1cc(C(F)(F)F)ccc1Cl`, the XC50 amounted to 382 nM.

Molecule `N#Cc1ccc2c(c1)CN(C1CCC(NC(=O)C3=Cc4cc(Cl)ccc4OC3)CC1)CCC2` (stereo unspecified) registered an XC50 of 1330 nM.

`COc1ccc2nccc([C@@H](O)CN3CCC(NC(=O)c4cc5c(Cl)cc(Cl)cc5[nH]4)CC3)c2c1` came in with an XC50 of 233 nM. For the molecule `CN(C)CCN(C)Cc1ccc(-c2cccc(NC(=O)c3ccc(Cl)cc3)c2)cc1`, the XC50 was determined as 558 nM. Then `O=C(COc1ccc(Cl)cc1)N1CCC(CN2CCC(c3c[nH]c4ccccc34)CC2)CC1`, with 1100 nM. Then `FC(F)(F)c1ccc2[nH]c(-c3ccc(-c4ccc(CNCc5cnn(-c6ccccc6)n5)cc4)cc3)nc2c1`, with 433 nM. The molecule `CCCCCCCN1CC[C@@H](C[C@H](N)Cc2ccnc3ccc(OC)cc23)[C@@H](CC)C1` registered an XC50 of 1070 nM. For the molecule `N#Cc1ccc(S(=O)(=O)N2C(c3cccc([N+](=O)[O-])c3)C(C(=O)c3ccccc3)N(C3CCCCC3)C2c2cccc([N+](=O)[O-])c2)cc1` (stereo unspecified), the XC50 was 1080 nM.

In turn, `COc1ccc(CCNc2nc(NCCc3cnc[nH]3)nc(NCc3cccc4ccccc34)n2)cc1OC` had an XC50 of 537 nM. Then `COc1ccc(Cl)cc1-c1nc(C(=O)NCCN2CCCCC2)c(C)s1`, with 938 nM; and `C=CCc1ccc(C[C@H](NC(=O)OC(C)(C)C)C(=O)OC)cc1`, with 814 nM.

For `c1ccc2c(CNCCCCCCNCc3c(OCC4CC4)ccc4ccccc34)c(OCC3CC3)ccc2c1`, the XC50 is 928 nM. In the case of `Cc1ccc(Cn2ncc(N3CCNCC3)c(Cl)c2=O)cc1NC(=O)Nc1ccc(-c2ccccc2)cc1` it was 1120 nM; in that of `O=C(Nc1ccc(Cl)c(Cl)c1)N(Cc1ccccc1Br)C1CCNCC1`, 1030 nM. In the case of `Cc1ccccc1C1CCN(C2CCC(NC(=O)/C=C/c3cc(F)ccc3C(F)(F)F)CC2)CC1` (stereo unspecified) it was 953 nM; in that of `CC(C)(C)c1ccc(CNC(=O)COc2ccc(-c3nnc(-c4cccc([N+](=O)[O-])c4)o3)cc2[N+](=O)[O-])cc1`, 926 nM. In the case of `CCCc1ccc(C2CCN(CCCCNC(=O)c3ccc(NC(=O)c4ccc(Cl)cc4)cc3)CC2)cc1` it was 628 nM; in that of `COc1ccc2nccc([C@@H](O)CN3CCC(NCc4nc5cc(F)ccc5o4)CC3)c2c1`, 149 nM; in that of `CCNC(=O)Nc1ccc(-c2cccc(-c3nc4cccc(C)c4[nH]3)c2)cc1`, 756 nM. As for `CC(C)CNC(=O)c1ccnc(-c2ccc(CNCCCc3ccccc3)cc2)c1`, the XC50 was found to be 728 nM. `Cc1cccc(C(=O)Nc2ccnc(N(C)C3CCN(CC(C)C)CC3)c2)c1` gave an XC50 of 869 nM. In the case of `O=c1cc(NCCCNCc2scc3c(Cl)cc(C(F)(F)F)nc23)[nH]c2ccccc12` it was 754 nM.

`Fc1cccc(C=NN=c2cc[nH]c3ccc(C(F)(F)F)cc23)c1` had an XC50 of 733 nM. `Brc1ccc(Nc2nc(NCC3CCCO3)c3ccccc3n2)cc1` (stereo unspecified) yielded an XC50 of 584 nM. With `N#Cc1cccc(C(=O)Nc2ccc(-c3cccc(CN4CCCC4)c3)cc2)c1`, the XC50 came out at 712 nM. In the case of `O=C(CCNc1ccnc(NCCc2ccc(F)cc2)n1)Nc1ccccc1` it was 829 nM; in that of `COc1ccc(-c2nnc(Sc3ccc(C#N)c([N+](=O)[O-])c3)n2CC(C)C)cc1`, 821 nM; in that of `CC(=O)N/N=C/[C@H](CCc1ccccc1)NC(=O)[C@H](CC(C)C)NC(=O)c1ccc(F)cc1`, 692 nM.

`COc1cc2nc(NCc3cccc(CNC(=O)c4ccc(-c5ccc(C(C)=O)cc5)cc4)c3)nc(N)c2cc1OC` came in with an XC50 of 118 nM. Then `O=C(NCCCCN1CCC(c2ccc3c(c2OCCO)CCCC3)CC1)c1sc(-c2ccc(C(F)(F)F)cc2)nc1CO`, with 1050 nM.

Molecule `CCOc1cc(O)c(-c2nc(N)ncc2-c2ccc3c(c2)OCCO3)cc1CC` displayed an XC50 of 729 nM. Then `Cc1cc(C(=O)NC2CCN(Cc3ccccc3)CC2)ccc1-c1nc2cc(Cl)c(Cl)cc2[nH]1`, with 959 nM; and `NS(=O)(=O)c1ccc(CNC(=O)c2cnc3c(O)cccc3c2Nc2cccc(NC(=O)c3ccc(Cl)c(Cl)c3)c2)cc1`, with 1720 nM; and `Cc1[nH]c(CNCCCNc2cc(=O)c3ccccc3[nH]2)c(Br)c1Br`, with 1040 nM. Then `NCC1CCCN1Cc1ccc(-c2ccc(-c3nc4cc(C(F)(F)F)ccc4[nH]3)s2)cc1` (stereo unspecified), with 794 nM; and `COc1cc(CNCCCCCCNCc2cc(OC)c3ccccc3c2OC)c(OC)c2ccccc12`, with 700 nM. Then `CC(=O)Nc1ccc(C(=O)N2CCN(c3ccnc4cc(Cl)ccc34)CC2)cc1`, with 909 nM; and `Cc1nc2ccccc2n1C1CC2CCC(C1)N2CCCC1(c2ccccc2)CCN(C(=O)OCc2ccccc2)CC1` (stereo unspecified), with 998 nM; and `Oc1ccc(CCNc2nc(NCCCOc3ccccc3-c3ccncc3)nc(N3CCNCC3)n2)cc1`, with 1110 nM. Turning to `FC(F)(F)c1cccc(N=C(S)NN=Cc2ccccn2)c1`, the XC50 was 346 nM. In the case of `O=c1cc(N2CCNCC2)c(Cl)nn1Cc1ccc(NS(=O)(=O)c2ccc(Oc3ccccc3)cc2)cc1` it was 574 nM; in that of `COc1ccccc1OCCN(CC(O)COc1cccc2[nH]c3ccccc3c12)CC(O)COc1cccc2[nH]c3ccccc3c12` (stereo unspecified), 636 nM. Then `O=C(Nc1ccccc1)N(Cc1cccc(-c2ccc(CNC3CCCC3)cc2)c1)C1CCN(Cc2ccccc2)CC1`, with 394 nM.

As for `O=C(/C=C/c1ccc(Cl)c(Cl)c1)NCC[C@@H]1C[C@H]1CCN1CCC(c2c[nH]c3ccccc23)CC1`, the XC50 is 794 nM. `Cc1c(CNCCCNc2nc3cscc3[nH]2)sc(C(F)F)c1Br`: the XC50 stood at 936 nM.

In turn, `CC(=O)CCc1ccc(OCCN(Cc2ccccc2C(F)(F)F)c2ccc(C#N)c(C(F)(F)F)c2)cc1` returned an XC50 of 267 nM. As to `CC1(C)N=C(N)N=C(N)N1OCCCCON1C(N)=NC(N)=NC1(C)C`, the XC50 amounted to 66 nM. In the case of `O=S(=O)(ON=C1CCc2ccccc21)c1ccc(Cl)cc1` it was 1310 nM; in that of `CC(=O)N[C@H](C(=O)Nc1ccc(-c2cccc(-c3nc4cccc(C)c4[nH]3)c2)cc1)C(C)C`, 1090 nM; in that of `c1cc2c3c(cccc3c1)NC(CCCCCCCCC1=Nc3cccc4cccc(c34)N1)=N2`, 826 nM.

`CN1CCCN(Cc2cccc(-c3cccc(NC(=O)c4ccc(Cl)cc4)c3)c2)CC1` registered an XC50 of 922 nM. In the case of `COc1ccc2ncc(F)c([C@@H](O)CN3CCC(NCc4cc5c(cn4)OCCO5)CC3)c2c1` it was 140 nM. Then `Cc1c(-c2cccc(C(C)(C)NCCCN3CCCCC3)c2)cnc(N)c1C`, with 938 nM; and `Cc1cnc2cc3c(cc2c1N1CCN(C)CC1)NCC3`, with 779 nM. As to `CC(C)CCN1CCC(Oc2ccc(NC(=O)c3ccc(F)cc3)cc2Cl)CC1`, the XC50 was 725 nM. In the case of `CCOC(=O)c1cnc2c(C(F)(F)F)cccc2c1Nc1ccc(O)cc1` it was 632 nM.
